The source of these data is PubChem BioAssay (NCI).

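48-hour exposure; five concentrations; linearly interpolated endpoints. GI50 is the concentration that inhibits growth by half. TGI is the concentration that stops growth completely.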 Bounds are passed on as bounds.

In one assay the test system is CAKI-1 renal. The assay is described as follows: NCI anticancer screen, dose series, 48 h.
The compound `CCOP(=O)(OCC)OC1CC(n2cc(C)c(=O)n(C)c2=O)OC1CO[Si](C)(C)C(C)(C)C` (stereo not drawn) came in with a TGI greater than 100 µM.

In turn, `N#C/C(=C1\SC(N=Nc2ccc(Cl)cc2)C(=O)N1c1ccccc1)c1nc2ccccc2[nH]1` (stereo not drawn) returned a TGI greater than 100 µM.

On to `O=C(NN1C(=O)CSC1c1cccc(F)c1)c1ccncc1` (stereo not drawn), for which the TGI is greater than 100 µM.

With `COc1cccc2c1OCC1Cc3ccccc3OC21` (stereo not drawn), the TGI is greater than 100 µM.

`CC(C)C(N)C(=O)NC(CCC(=O)NCCCCC(N)C(=O)NCCCNc1ccc([N+](=O)[O-])c2[nH]c3ccccc3c(=O)c12)C(N)=O` (stereo not drawn) registered a TGI greater than 100 µM.

`Cc1cccc(/C(Br)=C2/OC(=O)c3ccccc32)c1` showed a TGI greater than 100 µM.

Compound `CC#CC(O)(C(=O)OC1CC(C)N(C)C(C)(C)C1)C1CCCC1` (stereo not drawn) gave a TGI greater than 100 µM.

The compound `Nc1ccc(-c2nn3c(COc4ccc(Cl)cc4)nnc3s2)cc1` came in with a TGI greater than 100 µM.

`C(=C\c1ccccc1)/COc1ccccc1C(N1CCOCC1)n1nc2ccccc2n1` (stereo not drawn): the TGI was 43.7 µM.

In the case of `c1ccc2[nH]c(CNc3ccc(C4C[Se]N=N4)cc3)nc2c1` (stereo not drawn), the TGI was greater than 100 µM.

`COc1cc(/C=C2\CCC(C)/C(=C\c3cc(OC)c(OC)c(OC)c3)C2=O)cc(OC)c1OC` (stereo not drawn) returned a TGI of 6.71 µM.

`COC(=O)[C@H](Cc1ccccc1)NC(=O)N(CCC#N)CCN(C(=O)N[C@@H](Cc1ccccc1)C(=O)OC)c1ccccc1` returned a TGI of 41 µM.

Turning to `C[C@H]1OC(=O)[C@@H]2N=NN(Cc3ccccc3)[C@H]12`, the TGI is greater than 100 µM.

As for `O=C(/C=C/c1ccc2c(c1)OCO2)Cc1nc2ccccc2[nH]c1=O`, the TGI was 48.1 µM.

`O=S1(=O)c2cnccc2NC(=NCc2ccccc2)N1c1ccccc1`: the TGI is greater than 100 µM.

On to `Cc1ccc2oc(=O)c(-c3ccccc3)nc2c1`, for which the TGI is greater than 100 µM.

In turn, `O=C(O)/C=C\C(=O)Nc1ccc(S(=O)(=O)c2ccc(NC(=O)/C=C\C(=O)O)cc2)cc1` returned a TGI greater than 100 µM.

With `COc1ccc(-n2nc(C)c3c(Nc4ccc(NC(=O)Nc5ccc(Cl)c(C(F)(F)F)c5)cc4)ncnc32)cc1`, the GI50 is 1.51 µM and the TGI stood at 3.51 µM.

Take `O=[N+]([O-])/C(Cl)=C(\NCCN/C(C(Cl)=C(Cl)Cl)=C(/Cl)[N+](=O)[O-])C(Cl)=C(Cl)Cl`: the TGI is greater than 100 µM.

Compound `S=C1NC2=C(CSC/C2=C\c2ccccc2)C(c2ccccc2)N1` (stereo not drawn) returned a TGI greater than 100 µM.

`CCN1C(=O)C(=C/C=C/c2ccc(N(CC)CC)cc2)C(=O)N(CC)C1=S`: the TGI is greater than 100 µM.

Compound `C/C(=C\CO)CC/C=C(\C)CNc1ccc([N+](=O)[O-])cc1` gave a TGI greater than 100 µM.

On to `CCCCCCCCCCCC1CC(=O)NCCCN(C)CCCCN(C)CCCN1C` (stereo not drawn), for which the TGI turned out to be 3.54 µM.

Turning to `CC(=O)Oc1c(C)c(C)c2c(c1C)CCC(C)(CC(=O)OCCCCCCCCCCC[P+](c1ccccc1)(c1ccccc1)c1ccccc1)O2` (stereo not drawn), the GI50 is 1.72 µM and the TGI was 3.27 µM.

`COc1cc(C2c3cc4c(cc3[C@@H](Nc3ccc5c(c3)OCO5)C3COC(=O)[C@H]23)OCO4)cc(OC)c1O` (stereo partly drawn) came in with a TGI of 1.43 µM.

Compound `CCN(CCCl)c1cc(CN(C)C)cc(NC(=O)c2ccc(C(=O)Nc3cccc(CN(C)C)c3)cc2)c1` registered a TGI greater than 100 µM.

Another assay concerns M14 melanoma. Description: NCI anticancer screen, dose series, 48 h.
`CCOP(=O)(OCC)OC1CC(n2cc(C)c(=O)n(C)c2=O)OC1CO[Si](C)(C)C(C)(C)C` (stereo not drawn) gave a TGI greater than 100 µM.

`N#C/C(=C1\SC(N=Nc2ccc(Cl)cc2)C(=O)N1c1ccccc1)c1nc2ccccc2[nH]1` (stereo not drawn) had a TGI greater than 100 µM.

With `O=C(NN1C(=O)CSC1c1cccc(F)c1)c1ccncc1` (stereo not drawn), the TGI was greater than 100 µM.

`COc1cccc2c1OCC1Cc3ccccc3OC21` (stereo not drawn): the TGI is greater than 100 µM.

On to `CC(C)C(N)C(=O)NC(CCC(=O)NCCCCC(N)C(=O)NCCCNc1ccc([N+](=O)[O-])c2[nH]c3ccccc3c(=O)c12)C(N)=O` (stereo not drawn), for which the TGI was greater than 100 µM.

Consider `Cc1cccc(/C(Br)=C2/OC(=O)c3ccccc32)c1`, for which the TGI was greater than 100 µM.

In turn, `CC#CC(O)(C(=O)OC1CC(C)N(C)C(C)(C)C1)C1CCCC1` (stereo not drawn) registered a TGI greater than 100 µM.

In turn, `Nc1ccc(-c2nn3c(COc4ccc(Cl)cc4)nnc3s2)cc1` displayed a TGI greater than 100 µM.

`C(=C\c1ccccc1)/COc1ccccc1C(N1CCOCC1)n1nc2ccccc2n1` (stereo not drawn) had a TGI of 13.5 µM.

In turn, `c1ccc2[nH]c(CNc3ccc(C4C[Se]N=N4)cc3)nc2c1` (stereo not drawn) had a TGI greater than 100 µM.

As for `COc1cc(/C=C2\CCC(C)/C(=C\c3cc(OC)c(OC)c(OC)c3)C2=O)cc(OC)c1OC` (stereo not drawn), the TGI worked out at 4.42 µM.

`COC(=O)[C@H](Cc1ccccc1)NC(=O)N(CCC#N)CCN(C(=O)N[C@@H](Cc1ccccc1)C(=O)OC)c1ccccc1` displayed a TGI of 55.1 µM.

In the case of `C[C@H]1OC(=O)[C@@H]2N=NN(Cc3ccccc3)[C@H]12`, the TGI is greater than 100 µM.

Compound `CN1N=C(c2ccncc2)OC1c1ccccc1F` (stereo not drawn) had a TGI greater than 100 µM.

`O=C(/C=C/c1ccc2c(c1)OCO2)Cc1nc2ccccc2[nH]c1=O` registered a TGI greater than 100 µM.

`O=S1(=O)c2cnccc2NC(=NCc2ccccc2)N1c1ccccc1` had a TGI greater than 100 µM.

Compound `Cc1ccc2oc(=O)c(-c3ccccc3)nc2c1` had a TGI greater than 100 µM.

`O=C(O)/C=C\C(=O)Nc1ccc(S(=O)(=O)c2ccc(NC(=O)/C=C\C(=O)O)cc2)cc1` gave a TGI greater than 100 µM.

In the case of `COc1ccc(-n2nc(C)c3c(Nc4ccc(NC(=O)Nc5ccc(Cl)c(C(F)(F)F)c5)cc4)ncnc32)cc1`, the GI50 is 1.68 µM and the TGI turned out to be 4.32 µM.

On to `O=[N+]([O-])/C(Cl)=C(\NCCN/C(C(Cl)=C(Cl)Cl)=C(/Cl)[N+](=O)[O-])C(Cl)=C(Cl)Cl`, for which the TGI is greater than 100 µM.

With `S=C1NC2=C(CSC/C2=C\c2ccccc2)C(c2ccccc2)N1` (stereo not drawn), the TGI was greater than 100 µM.

`CCN1C(=O)C(=C/C=C/c2ccc(N(CC)CC)cc2)C(=O)N(CC)C1=S` had a TGI greater than 100 µM.

`Nc1ccccc1C(=O)C(Br)C(Br)c1ccc2c(c1)OCO2` (stereo not drawn) returned a TGI of 41.3 µM.

`C/C(=C\CO)CC/C=C(\C)CNc1ccc([N+](=O)[O-])cc1` gave a TGI greater than 100 µM.

Take `CCCCCCCCCCCC1CC(=O)NCCCN(C)CCCCN(C)CCCN1C` (stereo not drawn): the TGI was found to be 3.24 µM.

As for `CC(=O)Oc1c(C)c(C)c2c(c1C)CCC(C)(CC(=O)OCCCCCCCCCCC[P+](c1ccccc1)(c1ccccc1)c1ccccc1)O2` (stereo not drawn), the GI50 is 0.408 µM and the TGI stood at 1.56 µM.

In turn, `CCN(CCCl)c1cc(CN(C)C)cc(NC(=O)c2ccc(C(=O)Nc3cccc(CN(C)C)c3)cc2)c1` displayed a TGI of 17.7 µM.

Another assay relates to MDA-MB-231 breast. Description: NCI anticancer screen, dose series, 48 h.
Compound `COc1cccc2c1OCC1Cc3ccccc3OC21` (stereo not drawn) had a TGI greater than 100 µM.

`CC(C)C(N)C(=O)NC(CCC(=O)NCCCCC(N)C(=O)NCCCNc1ccc([N+](=O)[O-])c2[nH]c3ccccc3c(=O)c12)C(N)=O` (stereo not drawn) gave a TGI greater than 100 µM.

Compound `CC#CC(O)(C(=O)OC1CC(C)N(C)C(C)(C)C1)C1CCCC1` (stereo not drawn) showed a TGI greater than 100 µM.

For the compound `Nc1ccc(-c2nn3c(COc4ccc(Cl)cc4)nnc3s2)cc1`, the TGI is greater than 100 µM.

Regarding `C(=C\c1ccccc1)/COc1ccccc1C(N1CCOCC1)n1nc2ccccc2n1` (stereo not drawn), the TGI came out at 15 µM.

`COc1cc(/C=C2\CCC(C)/C(=C\c3cc(OC)c(OC)c(OC)c3)C2=O)cc(OC)c1OC` (stereo not drawn) came in with a TGI greater than 100 µM.
